For this assay, the target named is T1, P-selectin binding to P-selectin glycoprotein ligand-1 (PSGL-1) (Homo sapiens, UniProt P16109).
T1 construct: truncated form of human P-selectin comprised of the lectin and EGF domains (P-LE)
T1 sequence (P16109 42-198): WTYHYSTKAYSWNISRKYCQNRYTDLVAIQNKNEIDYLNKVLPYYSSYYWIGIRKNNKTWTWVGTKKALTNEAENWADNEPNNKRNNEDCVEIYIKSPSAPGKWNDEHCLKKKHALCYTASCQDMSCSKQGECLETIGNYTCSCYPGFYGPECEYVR
As to the kind of experiment: Biacore inhibition of P-selectin binding to PSGL-1 (P-LE binding to immobilized SGP-3). The conditions noted are these: 1 mM; read-out: percent inhibition of binding (positive control). On the procedure: Compounds of the present teachings can be assayed for selectin inhibitory activity using any of the procedures known in the art. One convenient procedure is the determination of IC50 values for inhibition of P-selectin binding to P-selectin glycoprotein ligand-1 (PSGL-1) using a Biacore instrument.
The Biacore 3000 is an instrument that uses surface plasmon resonance to detect binding of a solution phase analyte to an immobilized ligand on a sensor chip surface. The analyte sample is injected under flow using a microfluidic system. Binding of analyte to ligand causes a change in the angle of refracted light at the surface of the sensor chip, measured by the Biacore instrument in resonance units (RUs).
SGP-3 is a purified sulfoglycopeptide form of human PSGL-1 that contains the P-selectin binding determinants (See Somers et al., 2000, Cell 103, 467-479). […]
The Biacore assay measures the signal in RU produced by binding of P-LE to SGP-3 in the presence and absence of inhibitors. Percent inhibition of binding is calculated by dividing the inhibited signal by the uninhibited signal subtracting this value from one then multiplying by one hundred. […] The data from this titration are plotted, RU values vs. concentration, and the IC50 is determined by extrapolation from the plot. […]
A general note: Surface plasmon resonance follows binding to a sensor surface in real time, without labels.

For `CC1(C)[C@@H](O[C@H]2O[C@H](C(=O)O)[C@@H](O)[C@H](O)[C@H]2O[C@@H]2O[C@H](C(=O)O)[C@@H](O)[C@H](O)[C@H]2O)CC[C@]2(C)[C@H]3C(=O)C=C4[C@@H]5C[C@@](C)(C(=O)O)CC[C@]5(C)CC[C@@]4(C)[C@]3(C)CC[C@@H]12` [Glycyrrhizin], the inhibition at 1000 µM came out at 50%.

What is called inhibition is the relative decrease from the control value, in per cent.

The values are drawn from patent publication US20080125454A1, “Methods and Compositions for Treatment of Scleritis and Related Disorders” (Wyeth, priority 2006, published 2008).
